pIC50: −log10 of the molar value.
Columns and labels:
[1] = system: A549 lung carcinoma cells; test: Cell proliferation assay (CellTiter 96 Aqueous); format: cell-based; details: Homo sapiens, compounds 48 hours, read-out: Cellular IC50 Proliferation
Description: Proliferation was measured using CellTiter 96 Aqueous Non-Radioactive Cell Proliferation Assay Kit (Promega), which determines the number of viable cells in culture based on quantitation of dehydrogenase enzymes, as an indicator of metabolically active cells. A549 lung carcinoma cells were seeded at 2,000 cells/well in a 96-well tissue culture treated plate in DMEM+10% FBS+1× pen/step+1×NEAA and incubated at 37° C. overnight in a CO2 incubator. Cells were treated with compounds for 48 hours. Then viability was measured using CellTiter 96 Aqueous Non-Radioactive Cell Proliferation Assay Kit (Promega). Detection was performed using Biotek Cytation 5 Cell Imaging Multi Mode plate reader.

CaMKK2 = CaMKK2 (Homo sapiens, UniProt Q96RR4); test: CaMKK2 binding assay (LanthaScreen TR-FRET)
CaMKK2, sequence (Q96RR4 whole entry): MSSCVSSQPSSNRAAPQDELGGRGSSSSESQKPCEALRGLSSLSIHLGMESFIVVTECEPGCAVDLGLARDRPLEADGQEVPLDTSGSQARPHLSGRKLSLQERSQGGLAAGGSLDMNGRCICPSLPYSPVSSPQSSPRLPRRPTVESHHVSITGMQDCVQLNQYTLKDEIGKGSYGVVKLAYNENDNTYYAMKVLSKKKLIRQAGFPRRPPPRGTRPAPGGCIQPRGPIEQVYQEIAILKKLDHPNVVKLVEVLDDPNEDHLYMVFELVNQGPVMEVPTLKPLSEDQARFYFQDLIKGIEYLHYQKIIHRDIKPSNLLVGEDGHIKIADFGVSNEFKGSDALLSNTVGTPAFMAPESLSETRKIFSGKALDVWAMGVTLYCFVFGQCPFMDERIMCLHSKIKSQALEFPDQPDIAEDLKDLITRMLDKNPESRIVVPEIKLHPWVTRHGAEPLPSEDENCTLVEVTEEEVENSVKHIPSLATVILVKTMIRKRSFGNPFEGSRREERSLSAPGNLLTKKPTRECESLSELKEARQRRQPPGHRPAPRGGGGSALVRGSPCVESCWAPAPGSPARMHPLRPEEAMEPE
Description: The ability of test compounds to bind and inhibit the activity of CaMKK2 were determined using a binding assay using LanthaScreent (Thermofisher) detection reagents in a 384-well plate format using the following assay buffer: 50 mM HEPES (pH7.5), 10 mM MgCl2, 1 mM EGTA, and 0.01% Brij-35.
A 10-point serial dilution of inhibitor compound in 0.5% DMSO was added to each well of the plate. The final assay volume in well was 15 uL. […] A ratio was calculated from the 2 readouts and fitted to a 4-parameter fit to determine the binding IC50.

[2] = system: phosphorylation of CaMKK2 substrate AMPK at Thr172 in A549 lung carcinoma cells; test: Cell-based phosphorylation assay (Phospho-AMPK Thr172 HTRF); details: Homo sapiens; A549 cells, compounds 4 hours, 3 uM Calcium Ionophore 30 minutes; read-out: Cellular IC50 Phosphorylation
Description: Cellular CaMKK2 inhibition by compounds was measured by monitoring the phosphorylation of CaMKK2 substrate AMPK at Thr172 in A549 lung carcinoma cells (ATCC) using CISBIO Phospho-AMPK (Thr172) HTRF kit. A549 cells were plated in 96 well plates at 8000 cells/well in DMEM+10% FBS+1× pen/step+1×NEAA and incubated at 37° C. overnight in a CO2 incubator. Cells were then treated with compounds for 4 hours. After cells were stimulated by 3 uM Calcium Ionophore (Sigma) at 37° C. for 30 minutes, cells were washed and then lysed with cell lysis buffer (CisBio) for 30 minutes. […] Plates were incubated overnight and then read using HTRF mode by BMG PHERAstarFS.

Row | pIC50 [1] | pIC50 (CaMKK2) | pIC50 [2] | Structure (SMILES)
1 | < 5.00 | > 7.00 | > 7.00 | O=C(O)c1ccc(-n2ccc3ncc(-c4ccccc4)nc32)cc1C1CCCC1 [Example 1, 2-Cyclopentyl-4-(3-phenylpyrrolo[2,3-b]pyrazin-5-yl)benzoic Acid]
2 | < 5.00 | > 7.00 | > 7.00 | O=C(O)c1ccc(-n2ccc3ncc(-c4cccc(C5CC5)c4)nc32)cc1C1CCCC1 [Example 2, 2-Cyclopentyl-4-[3-(3-cyclopropylphenyl)pyrrolo[2,3-b]pyrazin-5-yl]benzoic Acid]
3 | < 5.00 | > 7.00 | 6.00 to 7.00 | O=C(O)c1ccc(-c2ccnc3cc(-c4ccccc4)nn23)cc1C1CCCC1 [Example 2.2, 2-Cyclopentyl-4-(2-phenylpyrazolo[1,5-a]pyrimidin-7-yl)benzoic Acid]
4 | < 5.00 | > 7.00 | 6.00 to 7.00 | O=C(O)c1ccc(-c2ccnc3cc(-c4ccccc4F)nn23)cc1C1CCCC1 [Example 2.6, 2-Cyclopentyl-4-(2-(2-fluorophenyl)pyrazolo[1,5-a]pyrimidin-7-yl)benzoic Acid]
5 | < 5.00 | > 7.00 | 6.00 to 7.00 | CCOc1cccc(-c2cc3nccc(-c4ccc(C(=O)O)c(C5CCCC5)c4)n3n2)c1 [Example 2.10, 2-Cyclopentyl-4-(2-(3-ethoxyphenyl)pyrazolo[1,5-a]pyrimidin-7-yl)benzoic Acid]
6 | < 5.00 | > 7.00 | 6.00 to 7.00 | O=C(O)c1ccc(-c2ccnc3cc(-c4cccc(OCC5CC5)c4)nn23)cc1C1CCCC1 [Example 2.11, 2-Cyclopentyl-4-(2-(3-(cyclopropylmethoxy)phenyl)pyrazolo[1,5-a]pyrimidin-7-yl)benzoic Acid]
7 | < 5.00 | > 7.00 | 6.00 to 7.00 | O=C(O)c1ccc(-n2ccc3ncc(-c4cccc(Cl)c4)nc32)cc1C1CCCC1 [Example 3, 4-[3-(3-Chlorophenyl)pyrrolo[2,3-b]pyrazin-5-yl]-2-cyclopentyl-benzoic Acid]
8 | < 5.00 | > 7.00 | 6.00 to 7.00 | O=C(O)c1ccc(-c2ccnc3cn(-c4ccc(F)cc4)nc23)cc1C1CCCC1 [Example 3.1, 2-Cyclopentyl-4-[2-(4-fluorophenyl)pyrazolo[4,3-b]pyridin-7-yl]benzoic Acid]
9 | < 5.00 | > 7.00 | > 7.00 | O=C(O)c1ccc(-c2ccnc3cn(-c4ccccc4)nc23)cc1C1CCCC1 [Example 3.2, 2-Cyclopentyl-4-(2-phenyl-2H-pyrazolo[4,3-b]pyridin-7-yl)benzoic Acid]
10 | < 5.00 | > 7.00 | 6.00 to 7.00 | Cc1cccc(-n2cc3nccc(-c4ccc(C(=O)O)c(C5CCCC5)c4)c3n2)c1 [Example 3.3, 2-Cyclopentyl-4-(2-(m-tolyl)-2H-pyrazolo[4,3-b]pyridin-7-yl)benzoic Acid]
11 | < 5.00 | > 7.00 | > 7.00 | O=C(O)c1ccc(-c2ccnc3cn(-c4cccc(C5CC5)c4)nc23)cc1C1CCCC1 [Example 3.4, 2-Cyclopentyl-4-(2-(3-cyclopropylphenyl)-2H-pyrazolo[4,3-b]pyridin-7-yl)benzoic Acid]
12 | < 5.00 | > 7.00 | 6.00 to 7.00 | O=C(O)c1ccc(-c2c(F)cnc3cn(-c4ccc(F)cc4)nc23)cc1C1CCCC1 [Example 3.5, 2-Cyclopentyl-4-(6-fluoro-2-(4-fluorophenyl)-2H-pyrazolo[4,3-b]pyridin-7-yl)benzoic Acid]
13 | < 5.00 | > 7.00 | 6.00 to 7.00 | O=C(O)c1ccc(-c2ccnc3cn(-c4cccc(Cl)c4)nc23)cc1C1CCCC1 [Example 3.6, 4-(2-(3-Chlorophenyl)-2H-pyrazolo[4,3-b]pyridin-7-yl)-2-cyclopentylbenzoic Acid]
14 | < 5.00 | > 7.00 | > 7.00 | Cc1cc(Cl)cc(-n2cc3ncc(F)c(-c4ccc(C(=O)O)c(C5CCCC5)c4)c3n2)c1 [Example 3.7, 4-(2-(3-Chloro-5-methylphenyl)-6-fluoro-2H-pyrazolo[4,3-b]pyridin-7-yl)-2-cyclopentylbenzoic Acid]
15 | < 5.00 | > 7.00 | 6.00 to 7.00 | O=C(O)c1ccc(-c2c(F)cnc3cn(-c4cccc(C(F)(F)F)c4)nc23)cc1C1CCCC1 [Example 3.9, 2-Cyclopentyl-4-(6-fluoro-2-(3-(trifluoromethyl)phenyl)-2H-pyrazolo[4,3-b]pyridin-7-yl)benzoic Acid]
16 | < 5.00 | > 7.00 | 6.00 to 7.00 | O=C(O)c1ccc(-c2c(F)cnc3cn(-c4cc(F)cc(F)c4)nc23)cc1C1CCCC1 [Example 3.12, 2-Cyclopentyl-4-(2-(3,5-difluorophenyl)-6-fluoro-2H-pyrazolo[4,3-b]pyridin-7-yl)benzoic Acid]
17 | < 5.00 | > 7.00 | > 7.00 | O=C(O)c1ccc(-c2c(F)cnc3cn(-c4cc(Cl)cc(Cl)c4)nc23)cc1C1CCCC1 [Example 3.16, 2-Cyclopentyl-4-(2-(3,5-dichlorophenyl)-6-fluoro-2H-pyrazolo[4,3-b]pyridin-7-yl)benzoic Acid]
18 | < 5.00 | > 7.00 | 6.00 to 7.00 | COc1cc(F)cc(-n2cc3ncc(F)c(-c4ccc(C(=O)O)c(C5CCCC5)c4)c3n2)c1 [Example 3.17, 2-Cyclopentyl-4-(6-fluoro-2-(3-fluoro-5-methoxyphenyl)-2H-pyrazolo[4,3-b]pyridin-7-yl)benzoic Acid]
19 | < 5.00 | > 7.00 | 6.00 to 7.00 | Cc1cc(OC(F)(F)F)cc(-n2cc3ncc(F)c(-c4ccc(C(=O)O)c(C5CCCC5)c4)c3n2)c1 [Example 3.18, 2-Cyclopentyl-4-(6-fluoro-2-(3-methyl-5-(trifluoromethoxy)phenyl)-2H-pyrazolo[4,3-b]pyridin-7-yl)benzoic Acid]
20 | < 5.00 | > 7.00 | 6.00 to 7.00 | O=C(O)c1ccc(-c2ccnn3cc(-c4ccccc4)cc23)cc1C1CCCC1 [Example 4.1, 2-Cyclopentyl-4-(6-phenylpyrrolo[1,2-b]pyridazin-4-yl)benzoic Acid]
21 | < 5.00 | > 7.00 | 6.00 to 7.00 | CCNc1cc(-n2ccc3ncc(-c4ccccc4)nc32)ccc1C(=O)O [Example 5, 2-(Ethylamino)-4-(3-phenylpyrrolo[2,3-b]pyrazin-5-yl)benzoic Acid]
22 | < 5.00 | > 7.00 | 6.00 to 7.00 | O=C(O)c1ccc(-n2ccc3ncc(-c4ccccc4)nc32)cc1NCC1CC1 [Example 6, 2-((Cyclopropylmethyl)amino)-4-(3-phenyl-5H-pyrrolo[2,3-b]pyrazin-5-yl)benzoic Acid]
23 | < 5.00 | > 7.00 | 5.00 to 6.00 | O=C(O)c1ccc(-n2ccc3ncc(-c4ccccc4)nc32)cc1NC1CCCC1 [Example 7, 2-(Cyclopentylamino)-4-(3-phenyl-5H-pyrrolo[2,3-b]pyrazin-5-yl)benzoic Acid]
24 | < 5.00 | > 7.00 | 6.00 to 7.00 | CCNc1cc(-n2ccc3ncc(-c4ccc(F)cc4F)nc32)ccc1C(=O)O [Example 9, 4-(3-(2,4-Difluorophenyl)-5H-pyrrolo[2,3-b]pyrazin-5-yl)-2-(ethylamino)benzoic Acid]
25 | < 5.00 | > 7.00 | 6.00 to 7.00 | Cn1cc2cc(-c3cnc4ccn(-c5ccc(C(=O)O)c(NCC6CC6)c5)c4n3)ccc2n1 [Example 12, 2-(Cyclopropylmethylamino)-4-(3-(2-methyl-2H-indazol-5-yl)-5H-pyrrolo[2,3-b]pyrazin-5-yl)benzoic Acid]
26 | – | > 7.00 | – | Cc1cc(C)cc(-c2cnc3ccn(-c4ccc(C(=O)O)c(N[C@H]5CCNC5)c4)c3n2)c1 [Example 32, (S)-4-(3-(3,5-dimethylphenyl)-5H-pyrrolo[2,3-b]pyrazin-5-yl)-2-(pyrrolidin-3-ylamino)benzoic Acid]
27 | – | > 7.00 | – | Cc1cc(C)cc(-c2cnc3ccn(-c4ccc(C(=O)O)c(N[C@@H]5CCCNC5)c4)c3n2)c1 [Example 33, (R)-4-(3-(3,5-dimethylphenyl)-5H-pyrrolo[2,3-b]pyrazin-5-yl)-2-(piperidin-3-ylamino)benzoic Acid]
28 | – | > 7.00 | – | Cc1cc(C)cc(-c2cnc3ccn(-c4ccc(C(=O)O)c(NC5CCNCC5)c4)c3n2)c1 [Example 34, 4-(3-(3,5-dimethylphenyl)-5H-pyrrolo[2,3-b]pyrazin-5-yl)-2-(piperidin-4-ylamino)benzoic Acid]
29 | – | 6.00 to 7.00 | – | Cc1cc(C)cc(-c2cnc3ccn(-c4ccc(C(=O)O)c(O[C@@H]5CCNC5)c4)c3n2)c1 [Example 35, (R)-4-(3-(3,5-dimethylphenyl)-5H-pyrrolo[2,3-b]pyrazin-5-yl)-2-(pyrrolidin-3-yloxy)benzoic Acid]

From patent US20240246969A1, “HETEROCYCLIC DERIVATIVES AS CAMKK2 INHIBITORS” (Bristol-Myers Squibb Company, priority 2021, published 2024)
